Assay results reported in the supplement of paper PMC10307832.

Key:
Test in all cases: relative viability (nuclei count vs DMSO), 5 days (fraction); higher = more cells survive
XMD13-2 + Foretinib = compound: C1CC1C(=O)NC2=NNC3=C2C=CC(=C3)C4=CC(=CC=C4)C(=O)NC5CC5 [XMD13-2] + COc1cc2c(Oc3ccc(NC(=O)C4(C(=O)Nc5ccc(F)cc5)CC4)cc3F)ccnc2cc1OCCCN1CCOCC1 [Foretinib] (partner 0.25 µM)
In short: (§1)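 A single step with final 0.05% Triton X-100, 1% formaldehyde and 1 ug/ml Hoechst fixed the cells and stained nuclei 5 days after treatment. Lung cancer cell lines in 1536-well plates had been treated by pin tool the day after seeding with one drug alone or a fixed anchor-drug dose plus five library-drug doses (not always all listed) in √10 steps, and nuclei were counted on 4× images. Relative viability is the ratio of nuclei in treated wells to nuclei in vehicle wells, taken as the median of duplicate plates.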

XMD13-2 + Vorinostat = compound: C1CC1C(=O)NC2=NNC3=C2C=CC(=C3)C4=CC(=CC=C4)C(=O)NC5CC5 [XMD13-2] + O=C(CCCCCCC(=O)Nc1ccccc1)NO [Vorinostat] (partner 1 µM)
In short: as §1

Dasatinib + Palbociclib = compound: Cc1nc(Nc2ncc(C(=O)Nc3c(C)cccc3Cl)s2)cc(N2CCN(CCO)CC2)n1 [Dasatinib] + CC(=O)c1c(C)c2cnc(Nc3ccc(N4CCNCC4)cn3)nc2n(C2CCCC2)c1=O [Palbociclib] (partner 0.5 µM)
In short: as §1

Dasatinib + Navitoclax = compound: Cc1nc(Nc2ncc(C(=O)Nc3c(C)cccc3Cl)s2)cc(N2CCN(CCO)CC2)n1 [Dasatinib] + CC1(C)CCC(c2ccc(Cl)cc2)=C(CN2CCN(c3ccc(C(=O)NS(=O)(=O)c4ccc(N[C@H](CCN5CCOCC5)CSc5ccccc5)c(S(=O)(=O)C(F)(F)F)c4)cc3)CC2)C1 [Navitoclax] (partner 0.5 µM)
In short: as §1

Row | Cell Line | relative viability (XMD13-2 + Foretinib; first compound 0.05 µM) | relative viability (XMD13-2 + Foretinib; first compound 0.1581 µM) | relative viability (XMD13-2 + Foretinib; first compound 0.5 µM) | relative viability (XMD13-2 + Foretinib; first compound 1.581 µM) | relative viability (XMD13-2 + Foretinib; first compound 5 µM) | relative viability (XMD13-2 + Vorinostat; first compound 0.05 µM) | relative viability (XMD13-2 + Vorinostat; first compound 0.1581 µM) | relative viability (XMD13-2 + Vorinostat; first compound 0.5 µM) | relative viability (XMD13-2 + Vorinostat; first compound 1.581 µM) | relative viability (XMD13-2 + Vorinostat; first compound 5 µM) | relative viability (Dasatinib + Palbociclib; first compound 0.005 µM) | relative viability (Dasatinib + Palbociclib; first compound 0.01581 µM) | relative viability (Dasatinib + Palbociclib; first compound 0.05 µM) | relative viability (Dasatinib + Palbociclib; first compound 0.1581 µM) | relative viability (Dasatinib + Palbociclib; first compound 0.5 µM) | relative viability (Dasatinib + Navitoclax; first compound 0.005 µM) | relative viability (Dasatinib + Navitoclax; first compound 0.01581 µM) | relative viability (Dasatinib + Navitoclax; first compound 0.05 µM) | relative viability (Dasatinib + Navitoclax; first compound 0.1581 µM) | relative viability (Dasatinib + Navitoclax; first compound 0.5 µM)
1 | NCI-H1666 | 1.12 | 0.998 | 0.913 | 0.926 | 0.982 | 0.999 | 1.02 | 1.09 | 1.03 | 1 | 0.661 | 0.594 | 0.637 | 0.656 | 0.632 | 0.948 | 0.895 | 0.917 | 0.617 | 0.324
2 | NCI-H1734 | 1.05 | 0.843 | 0.864 | 0.8 | 0.658 | 1.02 | 0.777 | 0.753 | 0.685 | 0.547 | 0.328 | 0.285 | 0.295 | 0.208 | 0.2 | 0.729 | 0.695 | 0.629 | 0.404 | 0.374
3 | NCI-H1755 | 1.04 | 0.871 | 0.939 | 0.86 | 0.937 | 0.827 | 0.685 | 0.875 | 0.926 | 0.795 | 0.438 | 0.435 | 0.401 | 0.322 | 0.235 | 0.697 | 0.591 | 0.501 | 0.273 | 0.142
4 | NCI-H1793 | 0.84 | – | 0.966 | 0.791 | 0.68 | 1.03 | 0.602 | 0.746 | 0.666 | 0.928 | 0.217 | 0.279 | 0.236 | 0.247 | 0.231 | 0.323 | 0.182 | 0.238 | 0.166 | 0.152
5 | NCI-H1915 | 1.12 | 1.08 | 1.12 | 1.11 | 1.21 | 0.582 | 0.486 | 0.5 | 0.486 | 0.474 | 0.482 | 0.438 | 0.403 | 0.195 | 0.163 | 0.803 | 0.728 | 0.75 | 0.44 | 0.261
6 | NCI-H1944 | 0.898 | 0.886 | 0.935 | 1.04 | 0.946 | 0.632 | 0.53 | 0.607 | 0.808 | 0.628 | 0.315 | 0.242 | 0.249 | 0.119 | 0.111 | 1.03 | 1.07 | 0.976 | 0.695 | 0.504
7 | NCI-H1975 | 1.06 | 0.939 | 0.96 | 0.978 | 0.982 | 0.795 | 0.636 | 0.662 | 0.931 | 0.801 | 0.519 | 0.527 | 0.482 | 0.341 | 0.134 | 0.895 | 1.02 | 1.03 | 0.412 | 0.308
8 | NCI-H1993 | 0.838 | 0.689 | 0.775 | 0.785 | 0.507 | 1.2 | 0.814 | 0.769 | 0.613 | 0.907 | 0.65 | 0.623 | 0.622 | 0.662 | 0.373 | 0.872 | 0.7 | 0.724 | 0.581 | 0.736
9 | NCI-H2009 | 1.3 | 1.2 | 1.2 | 1.17 | 1.3 | 0.838 | 0.732 | 0.835 | 0.783 | 0.804 | 0.186 | 0.137 | 0.138 | 0.103 | 0.101 | 1.23 | 1.12 | 1.3 | 0.761 | 0.235
10 | NCI-H2023 | 0.82 | 0.825 | 0.791 | 0.798 | 0.864 | 0.837 | 0.668 | 0.696 | 0.731 | 0.94 | 0.319 | 0.304 | 0.303 | 0.326 | 0.204 | 0.978 | 0.854 | 0.795 | 0.778 | 0.488
11 | NCI-H2085 | 0.971 | 0.943 | 0.963 | 0.857 | 0.923 | 0.897 | 0.745 | 0.842 | 0.711 | 0.81 | 0.495 | 0.485 | 0.395 | 0.191 | 0.206 | 0.757 | 0.929 | 0.737 | 0.411 | 0.245
12 | NCI-H2087 | 1.4 | 1.27 | 1.22 | 1.08 | 0.727 | 0.686 | 0.902 | 0.729 | 0.898 | 0.853 | 0.223 | 0.206 | 0.238 | 0.184 | 0.142 | 0.997 | 0.873 | 1.07 | 0.972 | 0.532
13 | NCI-H2126 | 1.16 | 1.18 | 1.16 | 1.29 | 1.1 | 0.849 | 0.731 | 0.745 | 0.749 | 0.735 | 0.362 | 0.347 | 0.309 | 0.298 | 0.285 | 0.868 | 0.76 | 0.804 | 0.621 | 0.374
14 | NCI-H2170 | 0.937 | 0.97 | 1.03 | 0.9 | 0.984 | 0.904 | 0.753 | 0.855 | 0.794 | 0.809 | 0.377 | 0.394 | 0.397 | 0.288 | 0.204 | 0.545 | 0.473 | 0.572 | 0.267 | 0.232
15 | NCI-H2228 | 0.912 | 1.13 | 0.839 | 0.875 | 1.02 | 0.642 | 0.573 | 0.507 | 0.76 | 0.752 | 0.73 | 0.611 | 0.652 | 0.364 | 0.367 | 0.845 | 0.644 | 1.44 | 0.475 | 0.249
16 | NCI-H2347 | 0.986 | 0.992 | 1.17 | 0.848 | 1.1 | 0.565 | 0.619 | 0.765 | 0.562 | 0.661 | 0.393 | 0.438 | 0.415 | 0.329 | 0.224 | 0.875 | 0.692 | 0.467 | 0.285 | 0.228
